Values joined by “and” are separate entries in the source; they are usually repeats but may differ in a detail not shown here. Equal values may be shown once. Read-outs that look alike come from different tables or passages of the source.
Tests used:
HCV NS3/4A protease = HCV NS3/4A protease (Hepatitis C virus genotype 1a (isolate H77) (HCV), UniProt P27958); assay: HCV protease assay (fluorimetric, FRET substrate); assay type: biochemical
From the text: The HCV protease assay herein was applied to investigate the HCV-protease inhibitory activity of the prepared compounds as described above. The method of the HCV protease assay was described in D. T. Phuong, C. M. Ma, M. Hattori and J. S. Jin: Inhibitory Effects of Antrodins A-E from Antrodia cinnamomea and Their Metabolites on Hepatitis C Virus Protease. Phytotherapy Research, 23, 582-584, 2009. Two micro liters of a compound solution (using DMSO as solvent) was placed in 384 well micro plate, then 8 μl of HCV NS3/4A protease ([…]) was added to the well containing a sample and the plate was agitated. Finally, 10 μL of freshly prepared substrate (Ac-Asp-Glu-Dap(QXL™520)-Glu-Glu-Abu-COO-Ala-Ser-Cys(5-FAMsp)-NH2) (100× dilution of a DMSO stock solution) was added with sequential rotational shaking. The reaction mixture was incubated for 30 min at 37° C. The fluorimetric analyses were performed on an automated TECAN GENios plate reader with excitation wavelength at 485 nm and emission 530 nm. Each test compound was carried out in triplicate. The HCV—PR inhibition (%) was calculated by using the following equation: % inhibition=(Fvehicle control−[…])×100/Fvehicle control (Where F is the fluorescence value of vehicle control or of sample minus the fluorescence of the substrate control).

[1] = biological target: dipeptidyl peptidase-IV (DPPIV) (Homo sapiens (Human), UniProt P27487); assay: dipeptidyl peptidase-IV (DPPIV) assay; assay type: biochemical
dipeptidyl peptidase-IV (DPPIV), sequence (P27487 whole entry, species assumed): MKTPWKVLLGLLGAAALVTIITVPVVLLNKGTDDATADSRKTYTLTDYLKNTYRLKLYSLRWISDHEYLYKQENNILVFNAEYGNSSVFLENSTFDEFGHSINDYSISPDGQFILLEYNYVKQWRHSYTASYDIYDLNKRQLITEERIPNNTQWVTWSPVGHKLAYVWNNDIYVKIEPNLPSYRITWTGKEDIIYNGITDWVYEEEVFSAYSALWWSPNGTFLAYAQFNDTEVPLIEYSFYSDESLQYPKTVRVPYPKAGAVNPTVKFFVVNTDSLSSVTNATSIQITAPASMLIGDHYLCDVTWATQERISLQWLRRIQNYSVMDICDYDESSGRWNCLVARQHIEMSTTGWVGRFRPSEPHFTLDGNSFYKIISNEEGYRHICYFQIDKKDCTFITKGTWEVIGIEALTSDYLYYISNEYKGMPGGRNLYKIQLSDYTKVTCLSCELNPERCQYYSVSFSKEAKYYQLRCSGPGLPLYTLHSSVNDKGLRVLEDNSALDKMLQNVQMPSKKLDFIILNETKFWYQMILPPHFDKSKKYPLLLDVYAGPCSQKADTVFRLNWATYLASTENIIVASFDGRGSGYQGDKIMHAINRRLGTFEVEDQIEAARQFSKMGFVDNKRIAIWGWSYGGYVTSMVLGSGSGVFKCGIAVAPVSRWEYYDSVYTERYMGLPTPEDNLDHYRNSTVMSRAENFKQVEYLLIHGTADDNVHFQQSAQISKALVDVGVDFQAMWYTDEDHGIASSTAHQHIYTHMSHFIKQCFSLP
From the text: In addition, the dipeptidyl peptidase-IV (DPPIV) assay herein was applied to investigate the DPPIV inhibitory activity of the prepared compounds as described above. The method of the DPPIV assay was described in Lin et al., 1998. Inhibition of dipeptidyl peptidase IV by fluoroolefin-containing N-peptidyl-O-hydroxylamine peptidomimetics. Proc. Natl. Acad. Sci. USA Vol. 95, pp. 14020-14024.

HIV-1 protease = HIV-1 protease (Human immunodeficiency virus type 1 group M subtype B (isolate HXB2) (HIV-1), UniProt P04585); assay: HIV-1 protease inhibition assay (HPLC of hydrolysis product); assay type: biochemical
Procedure: HIV was a retrovirus with a single-stranded RNA genome. HIV protease was an important enzyme for replication. Translated proteins in the host cell were out into the desired shape by the enzyme. The substance was a protein dimer consisting of 99 amino acids, and the active center was Asp residues.
In this assay, oligopeptide (His-Lys-Ala-Arg-Val-Leu-Phe(NO2)-Glu-Ala-NLe-Ser-NH2) with strengthened absorbance was prepared as a substrate, in which para site of […] was modified by nitro. The substrate was incubated in the presence of HIV-1 protease and the test samples. Generation ratio of hydrolysis product (Phe (NO2)-Glu-Ala-NLe-Ser-NH2) was analyzed by HPLC, and the HIV-1 inhibitory activity in test sample was detected (Y. Wei, C. M. Ma, D. Y. Chen and M. Hattori: Anti-HIV-1 Protease Triterpenoids from Stauntonia Obovatifoloala Hayata Subsp. Phytochemistry, 69, 1875-1879, 2008). In this assay, pepsatatin A was used as a positive control.

[2] = tested on: Propionicbacterium acnes and lipopolysaccharide treated mice; details: cited from earlier work
HCV protease = HCV protease (Hepatitis C virus genotype 1a (isolate H77) (HCV), UniProt P27958); details: from PCT publication No. WO 2009/094807, cited from earlier work; for IC50: read-out: anti HCV activity
HCV protease, sequence (P27958 1027-1657): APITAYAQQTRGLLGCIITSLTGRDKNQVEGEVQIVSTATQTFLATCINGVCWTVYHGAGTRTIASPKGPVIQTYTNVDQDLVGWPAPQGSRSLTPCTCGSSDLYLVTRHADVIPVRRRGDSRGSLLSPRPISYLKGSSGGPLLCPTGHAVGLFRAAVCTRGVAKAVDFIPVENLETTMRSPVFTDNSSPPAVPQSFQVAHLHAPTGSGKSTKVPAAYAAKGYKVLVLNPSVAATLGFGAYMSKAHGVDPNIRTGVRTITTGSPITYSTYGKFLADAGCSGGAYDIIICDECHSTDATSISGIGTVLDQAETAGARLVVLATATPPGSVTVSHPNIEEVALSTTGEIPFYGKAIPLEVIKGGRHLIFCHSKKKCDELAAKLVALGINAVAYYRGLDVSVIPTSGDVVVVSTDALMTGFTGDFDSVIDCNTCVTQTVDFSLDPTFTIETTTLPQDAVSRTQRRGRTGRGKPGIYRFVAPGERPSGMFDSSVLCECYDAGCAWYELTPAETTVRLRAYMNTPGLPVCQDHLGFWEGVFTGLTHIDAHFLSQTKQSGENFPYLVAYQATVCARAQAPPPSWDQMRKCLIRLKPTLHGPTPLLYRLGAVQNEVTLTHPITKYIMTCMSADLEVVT
HCV protease, sequence (P27958 1658-1711 partner): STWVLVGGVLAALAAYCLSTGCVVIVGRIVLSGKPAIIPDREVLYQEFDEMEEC

NS3/4A HCV protease = NS3/4A HCV protease (Hepatitis C virus genotype 1a (isolate H77) (HCV), UniProt P27958); assay: NS3/4A HCV protease inhibition assay; assay type: biochemical; details: read-out: NS3/4A HCV protease inhibitive activity IC50
NS3/4A HCV protease, sequence (P27958 1027-1657): as the sequence (P27958 1027-1657) above
NS3/4A HCV protease, sequence (P27958 1658-1711 partner): as the sequence (P27958 1658-1711 partner) above
Procedure: When sensitive cells were infected with HCV virus, some precursor proteins were translated from uncoated virus RNA in the cytoplasm. According to the protease, the precursor proteins were processed into different viral proteins. Among viral proteins, NS3, a serine protease and RNA helicase, was an important non-structural protein involved in virus protein maturation and virus genome replication.
In this assay, protein (FRET) was prepared and modified with fluorescent protein 5-FAM as a substrate and QXL™520 as a quencher. The substrate was incubated with NS3/4A HCV protease and testing samples, and the fluorescence intensity was measured, according to the mechanism shown in FIG. 7 (C. M. Ma, Yo Wei, Z. G. Wang and M. Hattori: Triterpenes from Cynomorium Songaricium-analysis of HCV Protease Inhibitory Activity, Quantification and Content Change Under the Influence of Heating. J. Nat. Med., 63, 9-14, 2009). In this assay, HCV NS3 Protease Inhibitor 2 was used as positive control.

[3] = Table 10, first scaffold, read-out: IC50 against DPPIV (converted)
[4] = read-out: HIV-1 protease inhibitive activity IC50
[5] = Table 10, second scaffold, read-out: IC50 against DPPIV (converted)
[6] = HCV NS3/4A protease, 30 min at 37° C., triplicate, read-out: IC50 against HCV protease

HCV NS3/4A protease, sequence (P27958 1027-1657): as the sequence (P27958 1027-1657) above
HCV NS3/4A protease, sequence (P27958 1658-1711 partner): as the sequence (P27958 1658-1711 partner) above

## CC(C)=CCOc1ccc(C2=C(CC(C)C)C(=O)N(C(CC(C)C)C(=O)O)C2=O)cc1 (centres unmarked) [Compound A1, 2-(3-Isobutyl-4-(4-(3-methylbut-2-enyloxy)phenyl)-2,5-dioxo-2,5-dihydro-1H-pyrrol-1-yl)-4-methylpentanoic acid]
HCV NS3/4A protease
  IC50: 8.6 µM
[1]; [3]
  IC50: 105 µM

## CC(C)=CCOc1ccc([C@H]2C(=O)N(O)C(=O)[C@@H]2CC(C)C)cc1 (relative stereo) [Compound 4, (3R*,4S*)-1-hydroxy-3-isobutyl-4-[4-(3-methyl-2-butenyloxy)phenyl]pyrrolidine-2,5-dione]
HIV-1 protease; [4]
  IC50: 4.4 µM

## CC(C)=CCOc1ccc(C2=C(CC(C)C)C(=O)N(O)C2=O)cc1 [Compound 3, 3-isobutyl-4-[4-(3-methyl-2-butenyloxy)phenyl]-1H-pyrrol-1-ol-2,5-dione]
[2]
  protective activity in treated mice: protective activity
HIV-1 protease
  IC50: 6.5 µM
HCV protease
  IC50: 8.8 µM
[1]; [3]
  IC50: 115 µM

## CC(C)CC1C(=O)N(C(Cc2ccccc2)C(=O)O)C(=O)C1c1ccc(O)cc1 (centres unmarked) [Compound A2-t]
[1]; [5]
  IC50: 90 µM

## CC(C)=CCOc1ccc(C2=C(CC(C)C)C(=O)N(C(CO)C(=O)O)C2=O)cc1 (centres unmarked) [Compound A3, 3-Hydroxy-2-(3-isobutyl-4-(4-(3-methylbut-2-enyloxy)phenyl)-2,5-dioxo-2,5-dihydro-1H-pyrrol-1-yl)propanoic acid]
HCV NS3/4A protease
  IC50: 27 µM
[1]; [3]
  IC50: 99.6 µM

## CC(C)=CCOc1ccc(C2=C(CC(C)C)C(=O)N(C(Cc3ccccc3)C(=O)O)C2=O)cc1 (centres unmarked) [Compound A2, 2-(3-Isobutyl-4-(4-(3-methylbut-2-enyloxy)phenyl)-2,5-dioxo-2,5-dihydro-1H-pyrrol-1-yl)-3-phenylpropanoic acid]
HCV NS3/4A protease
  IC50: 14 µM
[1]; [3]
  IC50: 75.8 µM

## CC(C)CC1C(=O)N(C(Cc2ccccc2)C(=O)N2CCC[C@H]2C(=O)O)C(=O)C1c1ccc(O)cc1 (some centres unmarked) [Compound A2-14]
[1]; [5]
  IC50: 60 µM

## CC(C)=CCOc1ccc([C@@H]2C(=O)N(O)C(=O)[C@@H]2CC(C)C)cc1 (relative stereo) [Compound 5, (3R*,4R*)-1-hydroxy-3-isobutyl-4-[4-(3-methyl-2-butenyloxy)phenyl]pyrrolidine-2,5-dione]
HIV-1 protease; [4]
  IC50: 198 µM

## CC(C)CC1C(=O)N(C(CO)C(=O)N2CCC[C@H]2C(=O)O)C(=O)C1c1ccc(O)cc1 (some centres unmarked) [Compound A3-15]
[1]; [5]
  IC50: 85 µM

## CC(C)=CCOc1ccc(C2=C(CC(C)C)C(=O)NC2=O)cc1 [Compound 2, 3-isobutyl-4-[4-(3-methyl-2-butenyloxy)phenyl]-1H-pyrrol-2,5-dione]
HIV-1 protease
  IC50: 54 µM
HCV protease
  anti HCV activity (in words): low activity
[1]; [3]
  IC50: 160 µM

## CC(C)CC1C(=O)N(C(CC(C)C)C(=O)N2CCC[C@H]2C(=O)O)C(=O)C1c1ccc(O)cc1 (some centres unmarked) [Compound A1-9]
[1]; [5]
  IC50: 29 µM

## COC(=O)[C@@H]1CCCN1C(=O)C(CC(C)C)N1C(=O)C(CC(C)C)=C(c2ccc(OCC=C(C)C)cc2)C1=O (some centres unmarked) [Compound A1-5]
[1]; IC50 against DPPIV, Table 10, first scaffold
  IC50: > 186 µM and 65 µM

## CC(C)CC1C(=O)N(C(CO)C(=O)O)C(=O)C1c1ccc(O)cc1 (centres unmarked) [Compound A3-t]
[1]; [5]
  IC50: 70 µM

## COC(=O)[C@H](CC(C)C)NC(=O)C(Cc1ccccc1)N1C(=O)C(CC(C)C)=C(c2ccc(OCC=C(C)C)cc2)C1=O (some centres unmarked) [Compound A2-1, Methyl 2-(2-(3-isobutyl-4-(4-(3-methylbut-2-enyloxy)phenyl)-2,5-dioxo-2,5-dihydro-1H-pyrrol-1-yl)-3-phenylpropanamido)-4-methylpentanoate]
HCV NS3/4A protease; [6]
  IC50: > 100 µM

## CC(C)CC1C(=O)N(C(CC(C)C)C(=O)O)C(=O)C1c1ccc(O)cc1 (centres unmarked) [Compound A1-t]
[1]; [5]
  IC50: 75 µM

## COC(=O)C1CCCN1C(=O)C(CC(C)C)N1C(=O)C(CC(C)C)=C(c2ccc(OCC=C(C)C)cc2)C1=O (centres unmarked) [Compound A1-4]
HCV NS3/4A protease; [6]
  IC50: > 100 µM

## CC(C)CC1C(=O)N(C(Cc2ccccc2)C(=O)O)C(=O)C1c1ccc(O)cc1 (centres unmarked) [Compound A11]
HCV NS3/4A protease; [6]
  IC50: 63 µM

## CCOC(=O)[C@H](Cc1ccccc1)NC(=O)C(=O)C(c1ccccc1)N1C(=O)C(CC(C)C)=C(c2ccc(OCC=C(C)C)cc2)C1=O (some centres unmarked) [KC-1, Ethyl 2-(3-(3-isobutyl-4-(4-(3-methylbut-2-enyloxy)phenyl)-2,5-dioxo-2,5-dihydro-1H-pyrrol-1-yl)-2-oxo-3-phenylpropanamido)-3-phenylpropanoate]
HCV NS3/4A protease; [6]
  IC50: > 100 µM

## CSCCC(C(=O)O)N1C(=O)C(CC(C)C)=C(c2ccc(OCC=C(C)C)cc2)C1=O (centres unmarked) [Compound A5, 2-(3-Isobutyl-4-(4-(3-methylbut-2-enyloxy)phenyl)-2,5-dioxo-2,5-dihydro-1H-pyrrol-1-yl)-4-(methylthio)butanoic acid]
HCV NS3/4A protease; [6]
  IC50: 21 µM

## CC(C)=CCOc1ccc(C2=C(CC(C)C)C(=O)OC2=O)cc1 [Compound 1, 3-isobutyl-4-[4-(3-methyl-2-butenyloxy)phenyl]furan-2,5-dione]
HIV-1 protease
  IC50: > 300 µM
HCV protease
  IC50: 2.86 µM
[1]; [3]
  IC50: 79.5 µM

## CC(C)CC1C(=O)N(CC(C(=O)C(=O)NC(Cc2ccccc2)C(=O)O)c2ccccc2)C(=O)C1c1ccc(O)cc1 (centres unmarked) [KC-5]
HCV NS3/4A protease; [6]
  IC50: 9 µM

## CC(C)CC1C(=O)N(CC(O)C(=O)O)C(=O)C1c1ccc(O)cc1 (centres unmarked) [KA-t]
HCV NS3/4A protease; [6]
  IC50: 185 µM

## CC(C)CC1C(=O)N(C(Cc2ccccc2)C(=O)N[C@@H](CC(C)C)C(=O)O)C(=O)C1c1ccc(O)cc1 (some centres unmarked) [Compound A2-11]
HCV NS3/4A protease; [6]
  IC50: 120 µM

## CC(C)=CCOc1ccc(C2C(=O)N(O)C(=O)/C2=C\C(C)C)cc1 (centres unmarked) [Compound of formula (XIII)]
NS3/4A HCV protease
  IC50: 8.7 µM
HIV-1 protease; [4]
  IC50: 16.6 µM

## CC(C)=CCOc1ccc(C2=C(CC(C)C)C(=O)N(C(CCC(=O)O)C(=O)O)C2=O)cc1 (centres unmarked) [Compound A9, 2-(3-Isobutyl-4-(4-(3-methylbut-2-enyloxy)phenyl)-2,5-dioxo-2,5-dihydro-1H-pyrrol-1-yl)pentanedioic acid]
HCV NS3/4A protease; [6]
  IC50: 19 µM

## CC(C)CC1C(=O)C(C(c2ccccc2)C(O)C(=O)O)C(=O)C1c1ccc(O)cc1 (centres unmarked) [KC-t]
HCV NS3/4A protease; [6]
  IC50: 73 µM

## CC(C)=CCOc1ccc(C2=C(CC(C)C)C(=O)N(C(C(=O)C(=O)NC(C)C(=O)OC(C)(C)C)c3ccccc3)C2=O)cc1 (centres unmarked) [KC-4-2]
HCV NS3/4A protease; [6]
  IC50: 18.3 µM

## CC(C)CC1C(=O)N(C(CC(C)C)C(=O)N[C@@H](Cc2ccccc2)C(=O)O)C(=O)C1c1ccc(O)cc1 (some centres unmarked) [Compound A1-7]
HCV NS3/4A protease; [6]
  IC50: 27 µM

## COC(=O)C(CO)NC(=O)C(CC(C)C)N1C(=O)C(CC(C)C)=C(c2ccc(OCC=C(C)C)cc2)C1=O (centres unmarked) [Compound A1-3, Methyl 3-hydroxy-2-(2-(3-isobutyl-4-(4-(3-methylbut-2-enyloxy)-phenyl)-2,5-dioxo-2,5-dihydro-1H-pyrrol-1-yl)-4-methylpentanamido)-propanoate]
HCV NS3/4A protease; [6]
  IC50: > 100 µM

## CC(C)CC1C(=O)N(CC(=O)C(=O)NC(C)C(=O)O)C(=O)C1c1ccc(O)cc1 (centres unmarked) [KA-5]
HCV NS3/4A protease; [6]
  IC50: 70 µM
